Experimental data: article PMC5253734, “A chemical genetic screen uncovers a small molecule enhancer of the N-acylethanolamine degrading enzyme, fatty acid amide hydrolase, in Arabidopsis” (Scientific Reports, 2017)

Legend:
[1] = target: T1, AtFAAH (Arabidopsis fatty acid amide hydrolase) (Arabidopsis thaliana, UniProt Q7XJJ7); test: radiometric TLC amidohydrolase assay; format: biochemical; conditions: activator (raises apparent Vmax, not Km); 100 μM [14C]-NAE 12:0; pH 9, 0.2 mM DDM, 30 °C
T1 construct: gene FAAH
T1 sequence (Q7XJJ7 1-607): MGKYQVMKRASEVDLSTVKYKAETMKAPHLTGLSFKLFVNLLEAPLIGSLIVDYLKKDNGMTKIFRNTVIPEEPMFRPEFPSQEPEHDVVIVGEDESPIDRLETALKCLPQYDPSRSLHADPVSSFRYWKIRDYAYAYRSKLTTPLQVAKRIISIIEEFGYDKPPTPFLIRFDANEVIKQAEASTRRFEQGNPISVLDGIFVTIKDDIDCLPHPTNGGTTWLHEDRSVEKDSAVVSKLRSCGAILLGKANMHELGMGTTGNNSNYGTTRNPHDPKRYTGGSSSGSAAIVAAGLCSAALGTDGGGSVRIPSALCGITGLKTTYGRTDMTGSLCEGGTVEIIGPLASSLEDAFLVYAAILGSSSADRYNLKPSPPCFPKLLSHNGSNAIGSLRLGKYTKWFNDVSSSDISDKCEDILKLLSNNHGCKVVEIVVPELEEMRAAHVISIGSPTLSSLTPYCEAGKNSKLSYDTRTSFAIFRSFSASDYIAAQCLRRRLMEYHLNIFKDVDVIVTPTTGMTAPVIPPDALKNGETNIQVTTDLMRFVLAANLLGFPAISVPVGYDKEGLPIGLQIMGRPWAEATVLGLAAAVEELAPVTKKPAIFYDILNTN

[2] = target: T1, AtFAAH (Arabidopsis fatty acid amide hydrolase); test: radiometric TLC amidohydrolase assay, initial velocities, Michaelis-Menten; format: biochemical; conditions: labelled compound ([1-14C]); pH 9 Bis-Tris propane, 0.2 mM DDM, 30 °C; range covers without and with 100 μM MDPD; read-out: apparent Km

Structure (SMILES)	fold increase in activity at 100 μM [1]	Km [2] [µM]
COc1ccccc1-n1cc2c(c1-c1ccccc1)c(=O)n(C)c(=O)n2C [MDPD, 6-(2-methoxyphenyl)-1,3-dimethyl-5-phenyl-1H-pyrrolo[3,4-d]pyrimidine-2,4(3 H,6 H)-dione]	~ 4 fold	
CCCCCCCCCCCC(=O)NCCO [NAE 12:0, N-lauroylethanolamine]		27 to 28
